# Non-standard residues stand in square brackets, D forms with d. Residues, ends and D or L forms follow the SMILES beside them. *: point of attachment. DOTA = O=C(O)CN1CCN(CC(=O)O)CCN(CC(=O)*)CCN(CC(=O)O)CC1; EuK = O=C(O)CC[C@H](NC(=O)N[C@@H](CCCCN*)C(=O)O)C(=O)O; 2Nal = N[C@@H](Cc1ccc2ccccc2c1)C(=O)O; Trx = NC[C@H]1CC[C@H](C(=O)O)CC1
# Experiments:
# in vivo [1] = settings: male, BALB/c nu/nu, mouse, iv, 500 pmol, total radioactivity
# [2] = test system: PSMA-positive LNCaP cells; assay: Surface binding and internalization of 68Ga-labeled compounds; format: cell-based, human; settings: for Internalization Block / Surface Binding Block / Internalization / Surface Binding: 30 nM, 45 min, 37 °C; for Internalization Block / Surface Binding Block: blocked with 2-PMPA 500 µM; for Internalization / Surface Binding: unblocked; for Specific Internalization / Specific Surface Binding: difference of unblocked and blocked values
# Protocol: (§1) The PSMA-positive human cell line LNCaP (human lymph node carcinoma of the prostate; ATCC CRL-1740) was cultivated adherently at 37 °C and humidified 5% CO2 with RPMI-1640 (Thermo Fisher Scientific, Germany) supplemented with 10% fetal bovine serum (Sigma-Aldrich, Germany), 1% sodium pyruvate (Life Technologies, Germany) and 1% penicillin/[…] (Thermo Fisher Scientific, Germany). A mixture of trypsin/ethylenediaminetetraacetic acid (0.05% / 0.02%; Thermo Fisher Scientific, Germany) was used for cell harvesting (last authentication: April 2024).
# Internalization assays were performed on poly-L-lysine coated 24-well cell culture plates. The day before the experiment, LNCaP cells (10^5 cells/well) were harvested and seeded to the wells. The cells were incubated with the ^68Ga-labeled compounds (250 µl, 30 nM, diluted in RPMI medium) for 45 min at 37 °C. […] The medium was then removed and the cells washed with ice-cold PBS buffer (3 × 1 ml). To remove surface bound compounds, ice-cold glycine buffer (2 × 0.5 ml, 50 mM, pH 2.8) was added to the wells and collected after 5 min in a combined fraction. After washing once with PBS (1 ml), NaOH (0.5 ml, 0.3 M) was added to the cells for lysation. Collected surface-bound, internalized fractions and standards from the stock solutions (25 µl) were measured in a γ-counter. Data was normalized and presented as percentage of the initially added radioactivity bound to 10^5 cells [%IA/10^5 cells].
# [3] = Partition coefficient (logD), n-octanol/PBS pH 7.4; format: physicochemical; settings: 68Ga-labeled compounds, mean ± SD; for logD: read-out: Partition Coefficient [logDoctanol/PBS]
# Protocol: To determine the lipophilicity expressed as distribution coefficient (logD), a two-phase system of n-octanol (500 µl) and phosphate buffered saline (PBS) (490 µl) at pH 7.4 was used (n = 4). Compounds were radiolabeled with [^68Ga]Ga^3+ and the mixture diluted to a concentration of 0.25 µM in PBS. 10 µl of the 0.25 µM dilution were added to the n-octanol / PBS mixture. After extensive mixing, the 2-phase system was centrifuged for 10 min at 14,000 rpm and 4 °C. Two samples from each phase (100 µl) were taken and measured in a γ-gamma counter (PerkinElmer, Waltham, USA). […] The data is presented as the mean value with the standard deviation (SD).
# PSMA = target: T1, PSMA (Homo sapiens, UniProt Q04609); assay: Competitive cell binding (IC50) against [68Ga]Ga-PSMA-10 on LNCaP cells; settings: unlabeled precursors vs [68Ga]Ga-PSMA-10 (0.8 nM), 45 min, room temperature, ± SD
# T1 construct: incubated with [^68Ga]Ga-PSMA-10 (0.8 nM) and LNCaP cells (10^5 cells/well) for 45 min at room temperature; host or cells: LNCaP (human prostate carcinoma lymph node metastasis)
# T1 sequence (Q04609 whole entry): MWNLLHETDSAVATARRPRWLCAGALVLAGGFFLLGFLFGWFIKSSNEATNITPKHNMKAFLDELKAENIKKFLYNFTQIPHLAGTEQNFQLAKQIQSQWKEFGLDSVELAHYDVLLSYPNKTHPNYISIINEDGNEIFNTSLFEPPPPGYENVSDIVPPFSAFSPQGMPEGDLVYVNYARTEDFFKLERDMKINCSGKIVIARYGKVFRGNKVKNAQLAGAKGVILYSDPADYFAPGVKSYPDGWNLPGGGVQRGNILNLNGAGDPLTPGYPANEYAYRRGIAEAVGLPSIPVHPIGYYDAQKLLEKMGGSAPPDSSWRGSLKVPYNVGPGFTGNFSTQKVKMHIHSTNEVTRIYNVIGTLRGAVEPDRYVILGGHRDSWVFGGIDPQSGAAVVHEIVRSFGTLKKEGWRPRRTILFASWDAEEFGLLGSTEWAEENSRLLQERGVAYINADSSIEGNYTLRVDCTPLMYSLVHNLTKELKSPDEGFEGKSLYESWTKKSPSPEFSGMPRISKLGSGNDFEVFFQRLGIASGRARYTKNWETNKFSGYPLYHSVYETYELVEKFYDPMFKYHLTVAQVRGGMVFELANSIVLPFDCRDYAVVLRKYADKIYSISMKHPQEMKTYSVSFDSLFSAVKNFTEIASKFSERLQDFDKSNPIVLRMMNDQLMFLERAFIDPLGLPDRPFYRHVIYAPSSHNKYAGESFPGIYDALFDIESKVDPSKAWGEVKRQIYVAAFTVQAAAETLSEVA
# Protocol: as §1
# To determine the binding affinity of the investigated compounds, competitive cell binding studies were performed with ^68Ga-labeled PSMA-10. Dilution series of twelve concentrations in medium were prepared from the precursor peptides PS1 - PS11 including concentrations of 0, 0.5, 1, 2.5, 5, 10, 25, 50, 100, 500, 1,000, and 5,000 nM. The assay was performed on 96-well filter plates (Merck, Darmstadt, Germany). Medium (100 µl per well) was added before the experiment and incubated for 1 h at room temperature to block non-specific binding. The medium was removed and the diluted compounds were incubated with [^68Ga]Ga-PSMA-10 (0.8 nM) and LNCaP cells (10^5 cells/well) for 45 min at room temperature (total volume 100 µl/well). Cells were washed with PBS buffer (2× 100 µl, 1× 200 µl) over a MultiScreen 96-well vacuum filtration system (Merck Millipore, Billerica, USA). The filters containing the retained cells were punched out and the radioactivity was quantified using a γ-counter. By applying a non-linear regression algorithm (GraphPad Prism 8.0.1., Boston, USA), the specific inhibitory concentration of 50% (IC50) could be determined. The experiment was repeated at least three times per compound and the data presented as IC50 ± standard deviation.
# in vitro = in vitro ADME; settings: mouse, serum
# Protocol: Incubation in human and murine serum (BioIVT, United Kingdom) was used to determine the stability of the described precursors. First, the substances were labeled with [^177Lu]Lu^3+ and added to 100 µl of pre-warmed serum (0.5 nmol, 3 - 10 MBq). The reaction mixture was incubated at 37 °C and 10 µl samples were taken at regular intervals (0, 6, 24, 48, 72 h). After precipitation of the proteins by the addition of 30 µl of acetonitrile, the probes were centrifuged for 2 min at 14,000 rpm and the stability determined by analytical radio-HPLC of the […].
# in vivo [4] = settings: male, BALB/c nu/nu, mouse, iv, 500 pmol, total radioactivity; remark: listed apart in the source
# [5] = test system: LNCaP xenograft-bearing BALB/c nu/nu mice; assay: Static small-animal PET imaging 1 h and 2 h p.i.; settings: 68Ga-labeled, 0.5 nmol i.v., n = 1, SD from VOIs
# [6] = Static small-animal PET imaging 1 h and 2 h p.i.; settings: male, BALB/c nu/nu, mouse, tumor / kidney, iv, 500 pmol, total radioactivity
smiles,measurement,setting,value
"O=C(O)CC[C@H](NC(=O)N[C@@H](CCCCNC(=O)[C@H](Cc1ccc2ccccc2c1)NC(=O)[C@H]1CC[C@H](CNC(=O)[C@H](Cc2c[nH]cn2)NC(=O)[C@H](CCC(=O)O)NC(=O)[C@H](Cc2c[nH]cn2)NC(=O)[C@H](CCC(=O)O)NC(=O)[C@H](Cc2c[nH]cn2)NC(=O)[C@H](CCC(=O)O)NC(=O)CN2CCN(CC(=O)O)CCN(CC(=O)O)CCN(CC(=O)O)CC2)CC1)C(=O)O)C(=O)O [PS3, EuK-NaI-ChX-(HE)3-DOTA] ({DOTA}-EHEHEH[Trx][2Nal]-EuK)",SUV at 1 h,in vivo [1]; SUV kidneys,3.05 ± 0.01 SUV
same,SUV at 2 h,in vivo [1]; SUV kidneys,1.56 ± 0.13 SUV
same,SUV at 1 h,in vivo [1]; SUV muscle,0.13 ± 0.03 SUV
same,SUV at 2 h,in vivo [1]; SUV muscle,0.1 ± 0.01 SUV
same,SUV at 1 h,in vivo [1]; SUV tumor,0.93 ± 0.08 SUV
same,SUV at 2 h,in vivo [1]; SUV tumor,0.92 ± 0.06 SUV
same,Internalization Block,[2],0.112 ± 0.022 %Binding / %Internalization
same,Surface Binding Block,[2],0.069 ± 0.129 %Binding / %Internalization
same,Internalization,[2],0.67 ± 0.14 %Binding / %Internalization
same,Surface Binding,[2],1.32 ± 0.11 %Binding / %Internalization
same,Specific Internalization,[2],0.56 ± 0.42 %Binding / %Internalization
same,Specific Surface Binding,[2],1.26 ± 1.97 %Binding / %Internalization
same,logD,[3],-3.6 ± 0.3
same,IC50,PSMA,37 ± 11.4 nM
"O=C(O)CC[C@H](NC(=O)N[C@@H](CCCCNC(=O)[C@H](Cc1ccc2ccccc2c1)NC(=O)[C@H](Cc1c[nH]cn1)NC(=O)[C@H](Cc1c[nH]cn1)NC(=O)[C@H](Cc1c[nH]cn1)NC(=O)[C@H]1CC[C@H](CNC(=O)CN2CCN(CC(=O)O)CCN(CC(=O)O)CCN(CC(=O)O)CC2)CC1)C(=O)O)C(=O)O [[^177Lu]Lu-PS10, metal not drawn] ({DOTA-Trx}-HHH[2Nal]-EuK)","remaining at 48 h, 5 µM",in vitro,64%
"O=C(O)CC[C@H](NC(=O)N[C@@H](CCCCNC(=O)[C@H](Cc1ccc2ccccc2c1)NC(=O)[C@H]1CC[C@H](CNC(=O)[C@H](Cc2c[nH]cn2)NC(=O)[C@H](CCC(=O)O)NC(=O)[C@H](Cc2c[nH]cn2)NC(=O)[C@H](CCC(=O)O)NC(=O)[C@H](Cc2c[nH]cn2)NC(=O)[C@H](CCC(=O)O)NC(=O)[C@H](Cc2c[nH]cn2)NC(=O)[C@H](CCC(=O)O)NC(=O)CN2CCN(CC(=O)O)CCN(CC(=O)O)CCN(CC(=O)O)CC2)CC1)C(=O)O)C(=O)O [PS5, EuK-NaI-ChX-(HE)4-DOTA] ({DOTA}-EHEHEHEH[Trx][2Nal]-EuK)",SUV at 1 h,in vivo [1]; SUV kidneys,3.13 ± 0.16 SUV
same,SUV at 2 h,in vivo [1]; SUV kidneys,2.37 ± 0.27 SUV
same,SUV at 1 h,in vivo [1]; SUV muscle,0.12 ± 0.02 SUV
same,SUV at 2 h,in vivo [1]; SUV muscle,0.09 ± 0.02 SUV
same,SUV at 1 h,in vivo [1]; SUV tumor,0.86 ± 0.06 SUV
same,SUV at 2 h,in vivo [1]; SUV tumor,0.94 ± 0.07 SUV
same,Internalization Block,[2],0.155 ± 0.022 %Binding / %Internalization
same,Surface Binding Block,[2],0.082 ± 0.029 %Binding / %Internalization
same,Internalization,[2],0.67 ± 0.06 %Binding / %Internalization
same,Surface Binding,[2],1.41 ± 0.10 %Binding / %Internalization
same,Specific Internalization,[2],0.51 ± 0.25 %Binding / %Internalization
same,Specific Surface Binding,[2],1.33 ± 0.42 %Binding / %Internalization
same,logD,[3],-3.74 ± 0.05
same,IC50,PSMA,46.7 ± 37.3 nM
"O=C(O)CC[C@H](NC(=O)N[C@@H](CCCCNC(=O)[C@H](Cc1c[nH]cn1)NC(=O)[C@H](Cc1c[nH]cn1)NC(=O)[C@H](Cc1c[nH]cn1)NC(=O)[C@H](Cc1ccc2ccccc2c1)NC(=O)[C@H]1CC[C@H](CNC(=O)CN2CCN(CC(=O)O)CCN(CC(=O)O)CCN(CC(=O)O)CC2)CC1)C(=O)O)C(=O)O [[^177Lu]Lu-PS9, metal not drawn] ({DOTA-Trx}-[2Nal]HHH-EuK)","metabolised at 24 h, 5 µM",in vitro,~40%
"O=C(O)CC[C@H](NC(=O)N[C@@H](CCCCNC(=O)[C@H](Cc1ccc2ccccc2c1)NC(=O)[C@H]1CC[C@H](CNC(=O)[C@H](Cc2c[nH]cn2)NC(=O)[C@H](Cc2c[nH]cn2)NC(=O)[C@H](Cc2c[nH]cn2)NC(=O)CN2CCN(CC(=O)O)CCN(CC(=O)O)CCN(CC(=O)O)CC2)CC1)C(=O)O)C(=O)O [[^68Ga]Ga-PS11, metal not drawn] ({DOTA}-HHH[Trx][2Nal]-EuK)",tissue to tissue ratio at 1 h,in vivo [1],0.66 ± 0.15
same,tissue to tissue ratio at 2 h,in vivo [1],1.15 ± 0.27
same,tissue to tissue ratio at 1 h,in vivo [4],0.633
"O=C(O)CC[C@H](NC(=O)N[C@@H](CCCCNC(=O)[C@H](Cc1ccc2ccccc2c1)NC(=O)[C@H]1CC[C@H](CNC(=O)CN2CCN(CC(=O)O)CCN(CC(=O)O)CCN(CC(=O)O)CC2)CC1)C(=O)O)C(=O)O [PSMA-617, EuK-NaI-ChX-DOTA]",Internalization Block,[2],0.210 ± 0.036 %Binding / %Internalization
same,Surface Binding Block,[2],0.062 ± 0.013 %Binding / %Internalization
same,Internalization,[2],0.50 ± 0.05 %Binding / %Internalization
same,Surface Binding,[2],0.79 ± 0.13 %Binding / %Internalization
same,Specific Internalization,[2],0.28 ± 0.27 %Binding / %Internalization
same,Specific Surface Binding,[2],0.72 ± 0.38 %Binding / %Internalization
same,Partition Coefficient [logDoctanol/PBS],[3],-2.7 ± 0.2
same,SUV kidneys,[5]; static PET 1 h p.i.,1.25 ± 0.14 g/mL
same,SUV muscle,[5]; static PET 1 h p.i.,0.073 ± 0.004 g/mL
same,SUV tumor,[5]; static PET 1 h p.i.,0.63 ± 0.02 g/mL
same,SUV kidneys,[5]; static PET 2 h p.i.,0.28 ± 0.06 g/mL
same,SUV muscle,[5]; static PET 2 h p.i.,0.02 ± 0.01 g/mL
same,SUV tumor,[5]; static PET 2 h p.i.,0.52 ± 0.16 g/mL
same,IC50,PSMA,21.8 ± 3.13 nM
"O=C(O)CC[C@H](NC(=O)N[C@@H](CCCCNC(=O)[C@H](Cc1ccc2ccccc2c1)NC(=O)[C@H](Cc1c[nH]cn1)NC(=O)[C@H](CCC(=O)O)NC(=O)[C@H](Cc1c[nH]cn1)NC(=O)[C@H](CCC(=O)O)NC(=O)[C@H](Cc1c[nH]cn1)NC(=O)[C@H](CCC(=O)O)NC(=O)[C@H]1CC[C@H](CNC(=O)CN2CCN(CC(=O)O)CCN(CC(=O)O)CCN(CC(=O)O)CC2)CC1)C(=O)O)C(=O)O [[^68Ga]Ga-PS2, metal not drawn] ({DOTA-Trx}-EHEHEH[2Nal]-EuK)",tissue to tissue ratio at 1 h,[6],0.47 ± 0.14
same,tissue to tissue ratio at 2 h,[6],0.73 ± 0.14
"O=C(O)CC[C@H](NC(=O)N[C@@H](CCCCNC(=O)[C@H](Cc1ccc2ccccc2c1)NC(=O)[C@H]1CC[C@H](CNC(=O)[C@H](CCC(=O)O)NC(=O)[C@H](CCC(=O)O)NC(=O)[C@H](CCC(=O)O)NC(=O)CN2CCN(CC(=O)O)CCN(CC(=O)O)CCN(CC(=O)O)CC2)CC1)C(=O)O)C(=O)O [[^68Ga]Ga-PS8, metal not drawn] ({DOTA}-EEE[Trx][2Nal]-EuK)",tissue to tissue ratio at 1 h,in vivo [1],16.2 ± 0.27
same,SUV at 1 h,in vivo [4],1.17 SUV
